Source: US20180289620A1, “NANOPARTICLE FORMULATIONS AND USES THEREOF” (Abraxis BioScience, LLC, priority 2008, published 2018)
Like-named read-outs stand apart in the source and are kept apart here.

Legend:
[1] = Log P of hydrophobic taxane derivatives; format: physicochemical; settings: method not stated
[2] = Pharmacokinetics of Nab-2 in monkeys; format: in vivo; settings: cynomolgus monkey; for AUCINF/D / Cmax/D / HL_Lambda_z / AUC(0-inf) / Cmax / Tmax / concentration at 0 hr / concentration at […] / concentration at 0.25 hr / concentration at 0.5 hr / concentration at 1 hr / concentration at 2 hr / concentration at 8 hr: label = analyte; for AUC(0-inf) / Cmax / Tmax / concentration at 0 hr / concentration at […] / concentration at 0.25 hr / concentration at 0.5 hr / concentration at 1 hr / concentration at 2 hr / concentration at 8 hr / clearance / Vd: male, blood; for concentration at […]: time 0.083 hr; for Vd: iv
Source text: The day of the initial dose administration was designated Study Day 1, with subsequent days consecutively numbered. Days on study prior to the initial dose administration were consecutively numbered with the final day of acclimation referenced as day −1.
Three non-naïve, male cynomolgus monkeys, confirmed to have no prior exposure to albumin, were assigned to dose groups as specified in Table 6 shown below. Animals weighed 5.4-6.7 kg and were 4 to 7 years of age at study initiation.
All animals were dosed once weekly, on days 1, 8 and 15. Animals in Groups 3 and 4 were administered Nab-2 (lot: ABI139-2-83) at 5 and 10 mg/kg, respectively, and the Group 5 animal was administered Nab-2 at 20, 10 and 10 mg/kg (on days 1, 8 and 15, respectively) via 30 minute intravenous infusion. Clinical observations were performed twice daily and body weights were recorded weekly throughout the study.

[3] = system: MX-1 (human breast carcinoma) cells; test: In vitro growth inhibition (cytotoxicity, CellTiter Blue Cell Viability Assay); format: cell-based; settings: cells exposed 72 hr
Procedure: A cytotoxicity assay was quantitated using the Promega CellTiter Blue Cell Viability Assay. Briefly, cells (5000 cells/well) were plated onto 96-well microtiter plates in RPMI 1640 medium supplemented with 10% FBS and incubated at 37° C. in a humidified 5% CO2 atmosphere. After 24 hr., cells were exposed to various concentrations of hydrophobic taxane derivative in DMSO and cultured for another 72 hr, 100 uL of media were removed and 20 uL of Promega CellTiter Blue reagent were added to each well and shaken to mix. After 4 hours of incubation at 37° C. in a humidified 5% CO2 atmosphere, the plates were read at 544 ex/620 em. The fluorescence produced is proportional to the number of viable cells. After plotting fluorescence produced against drug concentration, the IC50 was calculated as the […] of the resulting non-linear regression.

## CC(=O)O[C@@]12CO[C@@H]1C[C@H](O)[C@@]1(C)C(=O)[C@H](O)C3=C(C)[C@@H](OC(=O)[C@H](O)[C@@H](NC(=O)OC(C)(C)C)c4ccccc4)C[C@@](O)([C@@H](OC(=O)c4ccccc4)C12)C3(C)C (stereo partly drawn) [Docetaxel, docetaxel, reference compound]
[1]
  Log P: 4.20
[2]; Nab-2 IV 5 mg/kg
  AUCINF/D: 35 kg·ng·h/mL/mg
  Cmax/D: 8 kg·ng/mL/mg
  HL_Lambda_z: 1.4 h
  AUC(0-inf): 175 ng·h/mL
  Cmax: 41 ng/mL
  Tmax: 15 min
  concentration at 0 hr: 0 ng/mL
  concentration at […]: 36.7 ng/mL
  concentration at 0.25 hr: 40.7 ng/mL
  concentration at 0.5 hr: 35.5 ng/mL
  concentration at 1 hr: 32.1 ng/mL
  concentration at 2 hr: 34.1 ng/mL
  concentration at 8 hr: 1.15 ng/mL
[2]; Nab-2 IV 10 mg/kg
  AUCINF/D: 31 kg·ng·h/mL/mg
  Cmax/D: 10 kg·ng/mL/mg
  HL_Lambda_z: 3.2 h
  AUC(0-inf): 314 ng·h/mL
  Cmax: 99 ng/mL
  concentration at 0 hr: 0 ng/mL
  concentration at […]: 99.4 ng/mL
  concentration at 0.25 hr: 70.1 ng/mL
  concentration at 0.5 hr: 63.4 ng/mL
  concentration at 1 hr: 47.5 ng/mL
  concentration at 2 hr: 44.2 ng/mL
  concentration at 8 hr: 0 ng/mL
[2]; Nab-2 IV 20 mg/kg
  AUCINF/D: 20 kg·ng·h/mL/mg
  Cmax/D: 19 kg·ng/mL/mg
  HL_Lambda_z: 1.4 h
  AUC(0-inf): 394 ng·h/mL
  Cmax: 382 ng/mL
  concentration at 0 hr: 0 ng/mL
  concentration at […]: 382 ng/mL
  concentration at 0.25 hr: 232 ng/mL
  concentration at 0.5 hr: 157 ng/mL
  concentration at 1 hr: 90.5 ng/mL
  concentration at 2 hr: 69.2 ng/mL
  concentration at 8 hr: 0 ng/mL

## CC(=O)O[C@@]12CO[C@@H]1C[C@H](O)[C@@]1(C)C(=O)[C@H](O)C3=C(C)[C@@H](OC(=O)[C@H](OC(=O)c4ccccc4)[C@@H](NC(=O)OC(C)(C)C)c4ccccc4)C[C@@](O)([C@@H](OC(=O)c4ccccc4)C12)C3(C)C (stereo partly drawn) [Compound 1, 2′-Benzoyl-Docetaxel]
[1]
  logP: 6.67
[3]
  IC50: 38.4 µM

## CCCCCCCCCC(=O)O[C@@H](C(=O)O[C@H]1C[C@@]2(O)[C@@H](OC(=O)c3ccccc3)C3[C@](C)(C(=O)[C@H](O)C(=C1C)C2(C)C)[C@@H](O)C[C@H]1OC[C@@]31OC(C)=O)[C@@H](NC(=O)OC(C)(C)C)c1ccccc1 (stereo partly drawn) [Compound 3, 2′-Decanoyl-Docetaxel]
[3]
  IC50: 8.8 µM

## CCCCCC(=O)O[C@@H](C(=O)O[C@H]1C[C@@]2(O)[C@@H](OC(=O)c3ccccc3)C3[C@](C)(C(=O)[C@H](O)C(=C1C)C2(C)C)[C@@H](O)C[C@H]1OC[C@@]31OC(C)=O)[C@@H](NC(=O)OC(C)(C)C)c1ccccc1 (stereo partly drawn) [Compound 2, 2′-Hexanoyl Docetaxel]
[1]
  logP: 6.44
[3]
  IC50: 103 µM
[2]; Nab-2 IV 5 mg/kg
  AUCINF/D: 723 kg·ng·h/mL/mg
  Cmax/D: 215 kg·ng/mL/mg
  HL_Lambda_z: 3.6 h
  clearance: 23.1 mL/min/kg
  AUC(0-inf): 3610 ng·h/mL
  Cmax: 1070 ng/mL
  Tmax: 4.98 min
  concentration at 0 hr: 0 ng/mL
  concentration at […]: 1070 ng/mL
  concentration at 0.25 hr: 940 ng/mL
  concentration at 0.5 hr: 774 ng/mL
  concentration at 1 hr: 534 ng/mL
  concentration at 2 hr: 422 ng/mL
  concentration at 8 hr: 136 ng/mL
[2]; Nab-2 IV 10 mg/kg
  AUCINF/D: 535 kg·ng·h/mL/mg
  Cmax/D: 155 kg·ng/mL/mg
  HL_Lambda_z: 3.7 h
  clearance: 31.2 mL/min/kg
  AUC(0-inf): 5350 ng·h/mL
  Cmax: 1550 ng/mL
  Tmax: 4.98 min
  concentration at 0 hr: 0 ng/mL
  concentration at […]: 1550 ng/mL
  concentration at 0.25 hr: 1300 ng/mL
  concentration at 0.5 hr: 936 ng/mL
  concentration at 1 hr: 734 ng/mL
  concentration at 2 hr: 657 ng/mL
  concentration at 8 hr: 202 ng/mL
[2]; Nab-2 IV 20 mg/kg
  AUCINF/D: 393 kg·ng·h/mL/mg
  Cmax/D: 131 kg·ng/mL/mg
  HL_Lambda_z: 3.0 h
  clearance: 42.4 mL/min/kg
  AUC(0-inf): 7860 ng·h/mL
  Cmax: 2620 ng/mL
  Tmax: 15 min
  concentration at 0 hr: 0 ng/mL
  concentration at […]: 2390 ng/mL
  concentration at 0.25 hr: 2620 ng/mL
  concentration at 0.5 hr: 1820 ng/mL
  concentration at 1 hr: 1370 ng/mL
  concentration at 2 hr: 958 ng/mL
  concentration at 8 hr: 264 ng/mL
[2]; 5 mg/kg, Nab-2 IV 5 mg/kg, read-out: Vss
  Vd: 5.84 L/kg
[2]; 5 mg/kg, Nab-2 IV 5 mg/kg, read-out: Vz
  Vd: 7.18 L/kg
[2]; 10 mg/kg, Nab-2 IV 10 mg/kg, read-out: Vss
  Vd: 8.12 L/kg
[2]; 10 mg/kg, Nab-2 IV 10 mg/kg, read-out: Vz
  Vd: 9.93 L/kg
[2]; 20 mg/kg, Nab-2 IV 20 mg/kg, read-out: Vss
  Vd: 8.74 L/kg
[2]; 20 mg/kg, Nab-2 IV 20 mg/kg, read-out: Vz
  Vd: 11.2 L/kg
[2]; Nab-2 IV 5-20 mg/kg, read-out: volume of distribution Vz
  Vd: 7 to 11 L/kg

## CCCCC(=O)O[C@@H](C(=O)O[C@H]1C[C@@]2(O)[C@@H](OC(=O)c3ccccc3)C3[C@](C)(C(=O)[C@H](O)C(=C1C)C2(C)C)[C@@H](O)C[C@H]1OC[C@@]31OC(C)=O)[C@@H](NC(=O)OC(C)(C)C)c1ccccc1 (stereo partly drawn) [Compound 4, 2′-Valeryl-Docetaxel]
[1]
  logP: 6.37
[3]
  IC50: 211 µM

## CCC(=O)O[C@@H](C(=O)O[C@H]1C[C@@]2(O)[C@@H](OC(=O)c3ccccc3)C3[C@](C)(C(=O)[C@H](O)C(=C1C)C2(C)C)[C@@H](O)C[C@H]1OC[C@@]31OC(C)=O)[C@@H](NC(=O)OC(C)(C)C)c1ccccc1 (stereo partly drawn) [Compound 5, 2′-Propionyl-Docetaxel]
[1]
  logP: 5.31
[3]
  IC50: 209 µM
